Data taken from PubChem BioAssay AID788 (SRMLSC, 2007).
Activity calls are given as the source filed them. How the calls were made is not given here.

Legend:
[1] = tested on: S. cerevisiae vps1Δ apl2Δ growth inhibition, dose response; experiment: growth inhibition of vps1Δ apl2Δ yeast, dose response, post-Golgi transport modulator project, S. cerevisiae, background strain comparison (AID 788)
[2] = tested on: S. cerevisiae wild-type background strain growth inhibition; experiment: as above; settings: S. cerevisiae vps1Δ apl2Δ growth inhibition, dose response; measured here: wild-type background strain growth

Row | SMILES | IC50 [1] | IC50 [2] [µM]
1 | O=C(N/N=C/c1ccc(OC(=O)c2ccccc2)cc1)c1ccc(CN2CCOCC2)cc1 | > 10 µM (inactive) | > 10
2 | O=C(Nc1ccccc1)C1=C(O)CC(c2ccco2)CC1=Nc1ccccc1 (configuration not stated) | – | > 10
3 | COc1cccc(OCCCCN2CC(C)OC(C)C2)c1 (configuration not stated) | 4.38 µM | > 10
4 | N#Cc1ccccc1Cn1cc(C(=O)c2cccs2)c2ccccc21 | > 10 µM (inactive) | –
5 | CCOC(=O)c1c(NC(=O)CN2CCCCC2)sc2c1CCC(C=O)=C2Cl | > 10 µM (inactive) | > 10
6 | Cc1ccc(C(=O)c2c(NC(=O)c3ccncc3)sc3c2CCCC3)cc1 | 16.9 µM | > 10
7 | CCN1CCN(c2c(Cl)cccc2NC(=O)c2ccc(Br)o2)CC1 | > 10 µM (inactive) | > 10
8 | c1coc(CNc2nc(N3CCCCC3)nc3ccccc23)c1 | > 10 µM (inactive) | > 10
9 | Cc1cccc(N2CCN(CC(=O)Nc3nccs3)CC2)c1C | > 10 µM (inactive) | > 10
10 | CCCCS(=O)(=O)/C=C\C=C/S(=O)(=O)CCCC | 12.1 µM | 13.9
11 | Cc1cccc(-c2nnc(-c3cccc(NC(=O)Cc4cccs4)c3)o2)c1 | – | 15.2
12 | Fc1ccc(Cn2nnc(-c3ccc(CN4CCOCC4)cc3)n2)cc1 | 5.15 µM | > 10
13 | CCCn1nc([N+](=O)[O-])c(C(C#N)c2nc3ccccc3s2)c(Cl)c1=O (configuration not stated) | 5.34 µM (inactive) | 2.16
14 | CCCCCOc1ccc(CN2CCOCC2)cc1Cl | 3.92 µM | > 10
15 | Clc1ccc(-c2n[nH]c3c2CCC3)cc1Cl | 2.65 µM (inactive) | 1.81
16 | COc1ccccc1N1CCN(CC(O)c2ccc3cc[nH]c3c2)CC1 (configuration not stated) | > 10 µM (inactive) | > 10
17 | O=C(Nc1cccc(Cl)c1)N1CCN(C/C=C/c2ccccc2)CC1 | > 10 µM (inactive) | > 10
18 | CCOC(=O)c1c(CN2CCCCC2C)oc2ccc(OC)cc12 (configuration not stated) | > 10 µM (inactive) | > 10
19 | Cc1ccc(C(=O)NCc2occc2C(=O)O)o1 | > 10 µM (inactive) | > 10
20 | N#CC1=C2SCC(O)(c3ccccc3)N2C(=O)CC1c1ccccc1 (configuration not stated) | > 10 µM (inactive) | > 10
21 | COc1ccc(-c2nnc(CSc3nc4ccccc4c(=O)n3C)o2)cc1OC | > 10 µM (inactive) | > 10
22 | N#Cc1cn(-c2ccccc2)nc1-c1cc2ccccc2oc1=O | > 10 µM (inactive) | > 10
23 | O=C(Cn1nnc(-c2ccc(S(=O)(=O)N3CCCC3)cc2)n1)NCC1CCCO1 (configuration not stated) | > 10 µM (inactive) | > 10

Row | SMILES | IC50 [1] | IC50 [2] [µM]
24 | O=C(Nc1nnc(-c2ccccc2)o1)c1ccc(Cl)cc1 | 2.46 µM (inactive) | 0.65
25 | O=S(=O)(c1ccc(Cl)cc1)N1CCN(C2CCN(Cc3ccccc3)CC2)CC1 | 5.15 µM | > 10
26 | C=C(C)C1CC=C(CN2CC(C)OC(C)C2)CC1 (configuration not stated) | 4.44 µM | > 10
27 | CCCCCCOc1ccc(CN2CCN(CCO)CC2)cc1 | 5.19 µM | –
28 | Cc1ccc(C(=O)Nc2ccc(Cc3ccncc3)cc2)cc1[N+](=O)[O-] | 23.4 µM | –
29 | O=C(c1ccc(Cl)cc1Cl)N1CCC(c2nc3c(nnn3Cc3ccco3)c(=O)[nH]2)CC1 | > 10 µM (inactive) | > 10
30 | Cc1cc(=O)oc2c(CN3CCCCC3)c(O)c(Cl)cc12 | > 10 µM (inactive) | > 10
31 | COc1ccc(N2CCN(C(=O)CCNS(=O)(=O)c3ccc(Br)s3)CC2)cc1 | > 10 µM (inactive) | > 10
32 | Cc1cc(=O)[nH]c(SCC(=O)c2ccc(C)c(C)c2)n1 | 2.13 µM | 2.31
33 | CC1CN(CCCCOc2ccc(C(C)C)cc2)CC(C)O1 (configuration not stated) | 0.703 µM | > 10
34 | CC1CN(CC(O)COc2ccc(C(C)C)cc2)CC(C)O1 (configuration not stated) | 15.2 µM | > 10
35 | Nc1ccc(Oc2ccc3nc(-c4ccccc4)c(-c4ccccc4)nc3c2)cc1 | 1.2 µM (inactive) | 1.21
36 | O=[N+]([O-])c1cc(Cl)cc(/C=N\Nc2ccccn2)c1O | 9.68 µM | –
37 | O=C(NCC(c1cccnc1)N1CCN(c2ccc(F)cc2)CC1)OCc1ccccc1 (configuration not stated) | 22.9 µM | –
38 | O=C(NC(C(=O)c1ccccc1)N1CCCCC1)c1ccccc1 (configuration not stated) | > 10 µM (inactive) | > 10
39 | Nc1c(C(=O)OCC2CCCO2)c2nc3ccccc3nc2n1-c1ccc2c(c1)OCCO2 (configuration not stated) | > 10 µM (inactive) | > 10
40 | COc1ccccc1N1CCN(Cc2ccccc2F)CC1 | > 10 µM (inactive) | > 10
41 | CCOc1ccc(NC(=O)N(C2CCCCC2)C(C)c2cccnc2)cc1 (configuration not stated) | 15 µM | –
42 | N=c1c2c(-c3ccccc3)c(-c3ccccc3)n(Cc3ccco3)c2ncn1Cc1ccccc1 | 18.9 µM | –
43 | Cc1cc(NCCCN2CCOCC2)n2ncc(-c3ccc(Cl)cc3)c2n1 | – | > 10
44 | CC(Sc1ccsc1[N+](=O)[O-])C(=O)NCCc1ccc(Cl)cc1 (configuration not stated) | > 10 µM (inactive) | –
45 | COc1ccc(OCCSc2nnc3sc4ccccc4n23)cc1 | > 10 µM (inactive) | –
46 | C=C(C)COc1ccc(-c2ncncc2Oc2ccc(OC)cc2)c(O)c1 | – | > 10

Row | SMILES | IC50 [1] | IC50 [2] [µM]
47 | c1ccc2c(c1)oc1c(Nc3ccc(CN4CCOCC4)cc3)ncnc12 | – | > 10
48 | Cc1[nH]nc(N=CC2=C(O)CC(C)(C)CC2=O)c1-c1ccc(Cl)cc1 | > 10 µM (inactive) | –
49 | O=C(CN1CCN(c2ccccn2)CC1)Nc1ccc(Oc2ccccc2)cc1 | > 10 µM (inactive) | –
50 | O=C(NC1CCN(Cc2ccccc2)CC1)C1COc2ccccc2O1 (configuration not stated) | – | > 10
51 | O=C(OCn1ncc(Br)c(Br)c1=O)c1ccccc1Cl | 21 µM | –
52 | Cc1c(Cl)c([N+](=O)[O-])nn1Cc1ccc(C(=O)N/N=C\c2cccc(Br)c2)o1 | – | > 10
53 | CC1CC(C)CN(CC(C)(C)NS(=O)(=O)c2ccc(Cl)cc2)C1 (configuration not stated) | – | > 10
54 | Cc1nnc(-c2cccc(Br)c2)c2cn(-c3ccccc3)nc12 | – | > 10
55 | O=C(Nc1nnc(-c2ccc(Cl)cc2)o1)c1ccccc1Br | – | 13.1
56 | CC1CCN(S(=O)(=O)c2ccc(NC(=O)CCN3C(=O)c4ccccc4C3=O)cc2)CC1 | > 10 µM (inactive) | –
57 | CCOc1cc(/C=C\[N+](=O)[O-])ccc1OCC(=O)Nc1ccccc1C | – | > 10
58 | CC(c1nnc(SCn2nnc3ccccc3c2=O)n1-c1ccc(Cl)cc1)N(C)C (configuration not stated) | 2.16 µM | –
59 | O=C1C=C(c2ccccc2)C(=O)N1Nc1ccccc1 | 20 µM | –
60 | CC12CCC(c3c(C(=O)Nc4nccs4)nn(-c4ccccc4)c31)C2(C)C (configuration not stated) | > 10 µM (inactive) | –
61 | CCOc1nc(SCCOc2ccccc2)nc(N(C)C)n1 | > 10 µM (inactive) | –
62 | O=C(C1CCCN(S(=O)(=O)c2ccc(Cl)cc2)C1)N(Cc1cccs1)C1CC1 (configuration not stated) | > 10 µM (inactive) | –
63 | O=C(NCC1COc2ccccc2O1)c1ccc(Cl)cc1 (configuration not stated) | 1.32 µM | –
64 | CC1CCC(C(C)C)C(OCC(O)CN2CCN(Cc3ccccc3)CC2)C1 (configuration not stated) | 4.77 µM | –
65 | CC(C)c1ccc(C(=O)CSc2n[nH]c(-c3ccncc3)n2)cc1 | 5.64 µM | –
66 | CCOC(=O)C1=C(N)N2C(=O)C(C)SC2=C(C(=O)OC)C1c1ccccc1OC (configuration not stated) | – | 0.163
67 | CCCCC(=O)Nc1nc(C)c(-c2csc(Nc3ccc(Cl)cc3)n2)s1 | – | 6.26
68 | O=S1(=O)C=C(Sc2nc3ccccc3s2)c2ccccc21 | > 10 µM (inactive) | –
69 | O=S(=O)(Cc1ccccc1Cl)N1CCN(Cc2ccc3c(c2)OCO3)CC1 | 9.91 µM | –
